From ChEMBL document CHEMBL5126594, “Entry inhibition of hepatitis B virus using cyclosporin O derivatives with peptoid side chain incorporation” (Bioorg Med Chem, 2022)

Columns and labels:
[1] = target: T1, CYP1A2 (Homo sapiens, UniProt P05177); assay: Inhibition of human CYP1A2 at 10 uM preincubated for 10 mins followed by NADPH addition and measured after 20 mins by luciferin reagent based luminescence analysis; type: ADME; details: time 30 min
T1 sequence (P05177 whole entry): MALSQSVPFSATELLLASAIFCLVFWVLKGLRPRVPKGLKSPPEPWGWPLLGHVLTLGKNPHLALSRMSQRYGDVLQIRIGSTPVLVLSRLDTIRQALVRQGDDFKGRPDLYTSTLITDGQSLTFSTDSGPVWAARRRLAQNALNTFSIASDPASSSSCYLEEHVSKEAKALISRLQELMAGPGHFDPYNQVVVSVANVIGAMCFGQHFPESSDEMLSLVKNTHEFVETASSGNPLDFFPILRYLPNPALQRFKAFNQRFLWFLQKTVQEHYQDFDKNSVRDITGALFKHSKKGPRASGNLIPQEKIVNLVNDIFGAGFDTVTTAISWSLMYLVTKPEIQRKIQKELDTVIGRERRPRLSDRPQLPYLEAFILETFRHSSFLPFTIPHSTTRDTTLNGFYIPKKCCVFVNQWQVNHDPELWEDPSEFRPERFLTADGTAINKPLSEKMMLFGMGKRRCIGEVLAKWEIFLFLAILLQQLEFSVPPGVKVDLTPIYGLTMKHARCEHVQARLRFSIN

[2] = test system: Hepatitis B virus; assay: Antiviral activity against Hepatitis B virus infected in human HepG2 cells expressing NTCP assessed as inhibition of viral entry by measuring intracellular HBV DNA at 1 uM preincubated with compound for 2 hrs followed by viral infection and measured after 3 hrs by qPCR analysis relative to control; type: functional; details: time 5 hrs
[3] = target: CYP2C19 (Homo sapiens, UniProt P33261); assay: Inhibition of human CYP2C19 at 10 uM preincubated for 10 mins followed by NADPH addition and measured after 20 mins by luciferin reagent based luminescence analysis; type: ADME; details: time 30 min
Sequence of CYP2C19 (P33261 whole entry): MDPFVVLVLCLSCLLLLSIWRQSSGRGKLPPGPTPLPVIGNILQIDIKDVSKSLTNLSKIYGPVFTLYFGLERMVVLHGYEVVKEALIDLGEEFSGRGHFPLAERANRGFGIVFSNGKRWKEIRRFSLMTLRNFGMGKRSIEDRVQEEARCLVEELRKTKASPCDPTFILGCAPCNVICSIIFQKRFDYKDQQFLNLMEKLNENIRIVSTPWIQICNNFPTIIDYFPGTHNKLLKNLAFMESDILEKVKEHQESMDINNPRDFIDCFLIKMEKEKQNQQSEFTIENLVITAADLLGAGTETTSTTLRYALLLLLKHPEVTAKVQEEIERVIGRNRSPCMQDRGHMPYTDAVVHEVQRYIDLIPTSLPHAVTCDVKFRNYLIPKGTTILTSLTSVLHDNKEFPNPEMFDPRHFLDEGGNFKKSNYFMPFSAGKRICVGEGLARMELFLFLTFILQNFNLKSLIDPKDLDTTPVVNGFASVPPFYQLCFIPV

[4] = target: CYP2C9 (Homo sapiens, UniProt P11712); assay: Inhibition of human CYP2C9 at 10 uM preincubated for 10 mins followed by NADPH addition and measured after 20 mins by luciferin reagent based luminescence analysis; type: ADME; details: time 30 min
Sequence of CYP2C9 (P11712 whole entry): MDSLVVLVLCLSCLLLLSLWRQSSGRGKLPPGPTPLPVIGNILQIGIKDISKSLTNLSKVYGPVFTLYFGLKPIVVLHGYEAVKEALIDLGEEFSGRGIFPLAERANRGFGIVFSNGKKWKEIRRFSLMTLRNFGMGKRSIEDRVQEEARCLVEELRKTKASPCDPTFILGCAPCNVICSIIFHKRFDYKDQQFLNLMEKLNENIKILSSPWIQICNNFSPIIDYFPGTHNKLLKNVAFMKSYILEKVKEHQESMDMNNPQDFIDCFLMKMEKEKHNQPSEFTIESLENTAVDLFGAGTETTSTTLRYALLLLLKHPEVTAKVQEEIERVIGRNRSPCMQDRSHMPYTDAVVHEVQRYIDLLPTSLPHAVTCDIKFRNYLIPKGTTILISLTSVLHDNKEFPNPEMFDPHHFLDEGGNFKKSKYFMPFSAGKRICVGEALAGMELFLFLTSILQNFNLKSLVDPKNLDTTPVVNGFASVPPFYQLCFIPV

[5] = target: CYP2D6 (Homo sapiens, UniProt P10635); assay: Inhibition of human CYP2D6 at 10 uM preincubated for 10 mins followed by NADPH addition and measured after 20 mins by luciferin reagent based luminescence analysis; type: ADME; details: time 30 min
Sequence of CYP2D6 (P10635 whole entry): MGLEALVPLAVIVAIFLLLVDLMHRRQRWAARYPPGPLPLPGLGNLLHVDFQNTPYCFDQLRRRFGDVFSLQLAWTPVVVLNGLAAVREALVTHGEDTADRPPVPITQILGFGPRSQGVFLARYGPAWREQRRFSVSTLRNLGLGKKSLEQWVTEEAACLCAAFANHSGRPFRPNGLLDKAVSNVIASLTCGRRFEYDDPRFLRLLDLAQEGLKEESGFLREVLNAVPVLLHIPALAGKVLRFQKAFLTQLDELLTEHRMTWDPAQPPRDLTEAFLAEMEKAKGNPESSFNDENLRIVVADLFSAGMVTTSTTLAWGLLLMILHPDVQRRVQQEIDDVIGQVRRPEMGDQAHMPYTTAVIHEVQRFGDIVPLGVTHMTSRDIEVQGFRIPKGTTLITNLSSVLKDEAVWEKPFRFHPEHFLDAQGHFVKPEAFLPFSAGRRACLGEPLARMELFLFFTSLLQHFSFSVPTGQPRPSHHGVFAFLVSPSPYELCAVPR

[6] = target: T2, hERG (KCNH2) (Homo sapiens, UniProt Q12809); assay: in vitro
T2 sequence (Q12809 whole entry): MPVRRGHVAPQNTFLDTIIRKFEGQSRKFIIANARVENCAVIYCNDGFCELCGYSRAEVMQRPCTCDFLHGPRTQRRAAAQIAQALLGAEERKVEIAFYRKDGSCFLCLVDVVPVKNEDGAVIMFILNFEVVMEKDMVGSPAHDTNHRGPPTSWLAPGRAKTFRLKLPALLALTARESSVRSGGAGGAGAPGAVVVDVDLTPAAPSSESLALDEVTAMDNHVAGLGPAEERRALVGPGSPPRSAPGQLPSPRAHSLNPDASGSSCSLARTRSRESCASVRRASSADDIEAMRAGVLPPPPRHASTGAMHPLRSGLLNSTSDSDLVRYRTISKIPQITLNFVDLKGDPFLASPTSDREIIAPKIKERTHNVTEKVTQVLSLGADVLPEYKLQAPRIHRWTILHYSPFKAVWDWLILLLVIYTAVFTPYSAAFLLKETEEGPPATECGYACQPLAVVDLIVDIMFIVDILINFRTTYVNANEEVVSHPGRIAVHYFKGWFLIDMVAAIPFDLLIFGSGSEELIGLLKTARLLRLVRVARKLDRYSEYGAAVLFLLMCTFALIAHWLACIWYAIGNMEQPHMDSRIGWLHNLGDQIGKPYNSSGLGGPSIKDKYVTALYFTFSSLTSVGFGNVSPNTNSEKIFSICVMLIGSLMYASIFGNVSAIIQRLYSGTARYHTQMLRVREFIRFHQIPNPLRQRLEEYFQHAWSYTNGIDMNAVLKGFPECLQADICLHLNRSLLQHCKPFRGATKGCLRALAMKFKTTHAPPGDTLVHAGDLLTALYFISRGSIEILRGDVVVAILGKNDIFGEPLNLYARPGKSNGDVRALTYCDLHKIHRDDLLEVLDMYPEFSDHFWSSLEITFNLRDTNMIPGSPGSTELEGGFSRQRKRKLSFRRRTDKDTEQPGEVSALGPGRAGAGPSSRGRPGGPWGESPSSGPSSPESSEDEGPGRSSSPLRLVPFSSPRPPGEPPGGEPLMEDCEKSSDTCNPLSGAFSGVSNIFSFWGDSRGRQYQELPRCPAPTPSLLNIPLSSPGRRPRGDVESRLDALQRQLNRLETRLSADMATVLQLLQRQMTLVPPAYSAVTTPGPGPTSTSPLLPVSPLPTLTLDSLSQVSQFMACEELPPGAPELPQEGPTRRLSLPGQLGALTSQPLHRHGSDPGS
Description: Inhibition of hERG at 10 uM incubated for 2 hrs by fluorescence polarization based assay relative to control

[7] = test system: Hepatitis B virus; assay: Antiviral activity against Hepatitis B virus infected in human HepG2 cells expressing NTCP assessed as inhibition of viral entry by measuring intracellular HBV DNA preincubated with compound for 2 hrs followed by viral infection and measured after 3 hrs by qPCR analysis; type: functional, organism-based
[8] = Cytotoxicity against human HepG2 cells assessed as reduction in cell viability incubated for 24 hrs by MTS assay; type: toxicity, cell-based; details: read-out: LC50
[9] = target: T2, hERG (KCNH2); assay: Inhibition of hERG incubated for 2 hrs by fluorescence polarization based assay; type: toxicity
[10] = target: CYP3A4 (Homo sapiens, UniProt P08684); assay: Inhibition of human CYP3A4 at 10 uM preincubated for 10 mins followed by NADPH addition and measured after 20 mins by luciferin reagent based luminescence analysis; type: ADME; details: time 30 min
Sequence of CYP3A4 (P08684 whole entry): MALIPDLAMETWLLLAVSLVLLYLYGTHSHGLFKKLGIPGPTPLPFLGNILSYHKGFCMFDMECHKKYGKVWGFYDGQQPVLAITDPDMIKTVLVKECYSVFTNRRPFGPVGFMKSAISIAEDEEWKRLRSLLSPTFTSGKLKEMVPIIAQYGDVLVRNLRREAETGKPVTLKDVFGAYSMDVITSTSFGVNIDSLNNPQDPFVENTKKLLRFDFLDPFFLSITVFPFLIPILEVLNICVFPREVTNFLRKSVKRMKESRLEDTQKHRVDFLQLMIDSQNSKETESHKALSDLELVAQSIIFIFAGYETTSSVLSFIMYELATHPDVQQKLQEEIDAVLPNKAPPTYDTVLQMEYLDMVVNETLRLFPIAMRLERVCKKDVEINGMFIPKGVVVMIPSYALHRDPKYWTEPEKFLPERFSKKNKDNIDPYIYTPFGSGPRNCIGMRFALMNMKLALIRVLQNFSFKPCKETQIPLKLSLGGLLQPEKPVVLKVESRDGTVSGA

With `CCC[C@@H]1NC(=O)[C@H](CC(C)C)N(C)C(=O)[C@H](CC(C)C)N(C)C(=O)CN(CCO)C(=O)[C@H](CC(C)C)N(C)C(=O)[C@@H](C)NC(=O)[C@@H](CCC(N)=O)NC(=O)[C@H](CC(C)C)N(C)C(=O)[C@H](C(C)C)NC(=O)[C@H](CC(C)C)N(C)C(=O)CN(C)C1=O` as the compound, how does the inhibition at 20 min, 10 µM [1] read?
Its inhibition at 20 min, 10 µM is 8.4%.

And the inhibition at 1 µM [2]?
The inhibition at 1 µM was 78%.

And the inhibition at 20 min, 10 µM [3]?
Its inhibition at 20 min, 10 µM is 29.4%.

And the inhibition at 20 min, 10 µM [4]?
The inhibition at 20 min, 10 µM was 14.8%.

What about the inhibition at 20 min, 10 µM [5] of the same compound?
Its inhibition at 20 min, 10 µM is 35.1%.

What about the inhibition at 2 h, 10 µM [6] of the same compound?
The inhibition at 2 h, 10 µM was 19.1%.

What about the IC50 [7] of the same compound?
Its IC50 is 0.36 µM.

And the CC50 at 24 h [8]?
The CC50 at 24 h was over 200 µM.

And the EC50 at 2 h [9]?
Its EC50 at 2 h is over 10 µM.

What about the inhibition at 20 min, 10 µM [10] of the same compound?
Its inhibition at 20 min, 10 µM is 35.5%.
